Assay results published in ChEMBL document CHEMBL2384902, “Synthesis and ionophoric activities of functionalized bis(choloyl) conjugates with a rigid core” (Bioorg Med Chem Lett, 2013).

Columns and labels:
[1] = Ionophoric activity across egg-yolk L-alpha-phosphatidylcholine-based liposomal membranes (unknown origin) assessed as change in fluorescence intensity at 3 mol % by pyranine dye-based method in presence of chloride ions in internal and sulfate ions in external vesicles; type: physicochemical; conditions: artificial membrane
[2] = Ionophoric activity across egg-yolk L-alpha-phosphatidylcholine-based liposomal membranes (unknown origin) assessed as induction of pH discharge at internal pH 7 and external aqueous phase pH 8 by pyranine dye-based method; type: physicochemical; conditions: artificial membrane
[3] = Ratio of k2 to K for ionophoric activity across egg-yolk L-alpha-phosphatidylcholine-based liposomal membranes (unknown origin)
[4] = Ionophoric activity across egg-yolk L-alpha-phosphatidylcholine-based liposomal membranes (unknown origin) assessed as induction of pH discharge at 0.5 to 3 mol % at internal pH 7 and external aqueous phase pH 8 by pyranine dye-based method; type: physicochemical; conditions: artificial membrane

| SMILES | Activity [1] | K [2] | Ratio (10'-4/min.mol%'-4) [3] | Activity [4] | Ratio (10'-5/min.mol%'-4) [3] |
| --- | --- | --- | --- | --- | --- |
| C[C@H](CCC(=O)NC(CCCCN)C(=O)Nc1ccc(NC(=O)C(CCCCN)NC(=O)CC[C@@H](C)[C@H]2CC[C@H]3[C@@H]4[C@H](O)C[C@@H]5C[C@H](O)CC[C@]5(C)[C@H]4C[C@H](O)[C@]23C)cc1)[C@H]1CC[C@H]2[C@@H]3[C@H](O)C[C@@H]4C[C@H](O)CC[C@]4(C)[C@H]3C[C@H](O)[C@]12C (some centres not stated) | Not Active | 1.81 ×10⁻² /min | 5.5 | Active | – |
| CC(=O)NCCCCC(NC(=O)CC[C@@H](C)[C@H]1CC[C@H]2[C@@H]3[C@H](O)C[C@@H]4C[C@H](O)CC[C@]4(C)[C@H]3C[C@H](O)[C@]12C)C(=O)NCc1ccc(CNC(=O)C(CCCCNC(C)=O)NC(=O)CC[C@@H](C)[C@H]2CC[C@H]3[C@@H]4[C@H](O)C[C@@H]5C[C@H](O)CC[C@]5(C)[C@H]4C[C@H](O)[C@]23C)cc1 (some centres not stated) | Not Active | – | – | Active | – |
| C[C@H](CCC(=O)NC(CCCCN)C(=O)NCc1ccc(CNC(=O)C(CCCCN)NC(=O)CC[C@@H](C)[C@H]2CC[C@H]3[C@@H]4[C@H](O)C[C@@H]5C[C@H](O)CC[C@]5(C)[C@H]4C[C@H](O)[C@]23C)cc1)[C@H]1CC[C@H]2[C@@H]3[C@H](O)C[C@@H]4C[C@H](O)CC[C@]4(C)[C@H]3C[C@H](O)[C@]12C (some centres not stated) | Not Active | 1.81 ×10⁻² /min | 5.2 | Active | – |
| C[C@H](CCC(=O)NCc1ccc(CNC(=O)CC[C@@H](C)[C@H]2CC[C@H]3[C@@H]4[C@H](O)C[C@@H]5C[C@H](O)CC[C@]5(C)[C@H]4C[C@H](O)[C@]23C)cc1)[C@H]1CC[C@H]2[C@@H]3[C@H](O)C[C@@H]4C[C@H](O)CC[C@]4(C)[C@H]3C[C@H](O)[C@]12C | – | – | – | Active | 9 |
